molecular target: T1, human active recombinant p38 (p38α) (Homo sapiens, UniProt Q16539); assay: p38 Alpha Enzyme Assay (AlphaScreen, biotinylated-ATF2 substrate); type: biochemical; conditions: means of replicate determinations; pre-incubated for 4 hours at 37° C.; SD of assay between 0.2 and 0.3 log units
T1 construct: 6His
Description: The ability of the compounds of formula (I) to inhibit p38 kinase may be determined using the following biological assay:
Enzyme assays were performed in polypropylene 96 well plates. The following solutions were added to each well; 10 μL of compound dilutions in assay buffer (20 mM HEPES pH 7.4, containing 20 mM magnesium acetate, 0.005% (w/v) Tween-20, 10 mM DTT) containing 1% (v/v) DMSO or assay buffer containing 1% (v/v) DMSO alone, 70 μL of assay buffer containing 36 nM substrate (biotinylated-ATF2) and 10 μL of an appropriate dilution of human active recombinant p38-6H is tagged. Depending on batch of p38, an appropriate dilution was typically a 5 nM solution to give a final enzyme concentration of 0.5 nM. At this stage, background control wells also received 50 μL of AlphaScreen quench buffer (10 mM HEPES pH 7.4 containing 100 mM EDTA, 0.2% (w/v) bovine serum albumin). The plate was covered, pre-incubated for 4 hours at 37° C. and the enzyme reaction initiated by addition of 10 μL 1 mM ATP. After incubation for a further 45 minutes at 37° C., the reaction was stopped by addition of 50 μL quench reagent and 50 μL of the quenched reaction mixture transferred to an opaque, white 96-well plate. Detection reagent, 25 μL of 10 mM HEPES pH 7.4 containing 100 mM EDTA, 0.2% (w/v) bovine serum albumin, 0.3 nM anti phosphoATF2 antibody and 25 μg/mL of AlphaScreen protein A acceptor and donor beads' (PerkinElmer Inc.), was added to all wells in a darkened room, the plate sealed and left in the dark for at least 5 hours before AlphaScreen readings were taken using a Perkin Elmer EnVision reader. Total, uninhibited activity was determined from assays performed in each assay plate. The mean control in the absence of p38 activity was subtracted from each well. Data were expressed as percent inhibition of total activity using equation 1. Percent Inhibition=100*(1−Test/Control) Eq.1 Where . . . Test=p38 kinase activity in the presence of compound Control=p38 kinase activity in the absence of compound.
pIC50 is defined as the logarithm of the reciprocal of the concentration of compound required for 50% reduction in total p38 kinase activity.
The standard deviation of the p38 enzyme inhibition assay is between 0.2 and 0.3 log units.

T1 sequence (Q16539 whole entry): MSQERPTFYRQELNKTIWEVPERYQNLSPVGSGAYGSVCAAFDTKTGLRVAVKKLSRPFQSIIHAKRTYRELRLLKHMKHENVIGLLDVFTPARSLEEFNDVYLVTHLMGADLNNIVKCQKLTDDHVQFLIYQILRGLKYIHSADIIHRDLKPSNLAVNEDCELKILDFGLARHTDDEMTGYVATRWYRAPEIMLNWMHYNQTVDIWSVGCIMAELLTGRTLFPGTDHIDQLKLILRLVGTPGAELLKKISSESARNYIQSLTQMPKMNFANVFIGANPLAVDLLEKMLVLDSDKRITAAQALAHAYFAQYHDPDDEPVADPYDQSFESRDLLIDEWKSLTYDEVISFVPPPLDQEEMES

Row | Compound | p38α inhibition Mean pIC50
1 | N-Cyclopropyl-3-fluoro-5-(2-[2-(hydroxymethyl)-2-methylbutyl]-4-{[(3S)-3-methylpiperazin-1-yl]methyl}-1-oxo-1,2-dihydroisoquinolin-6-yl)-4-methylbenzamide [Example 37] | 9.5

same assay, conditions: means of replicate determinations; pre-incubated for 4 hours at 37° C.; SD of assay between 0.2 and 0.3 log units; read-out: p38α inhibition Mean pIC50 (converted)

Row | IC50 [nM] | Compound
2 | 0.501 | Cc1c(F)cc(C(=O)NC2CC2)cc1-c1ccc2c(=O)n(CC(C)(C)CO)cc(S(=O)(=O)N3CCN[C@@H](CO)C3)c2c1 [Example 49, N-Cyclopropyl-3-fluoro-5-[2-(3-hydroxy-2,2-dimethylpropyl)-4-{[(3R)-3-(hydroxymethyl)piperazin-1-yl]sulfonyl}-1-oxo-1,2-dihydroisoquinolin-6-yl]-4-methylbenzamide]
3 | 0.398 | Cc1c(F)cc(C(=O)NC2CC2)cc1-c1ccc2c(=O)n(CC(C)(C)CO)cc(S(=O)(=O)N3CC[C@H](N)C3)c2c1 [Example 53, 3-[4-{[(3S)-3-Aminopyrrolidin-1-yl]sulfonyl}-2-(3-hydroxy-2,2-dimethylpropyl)-1-oxo-1,2-dihydroisoquinolin-6-yl]-N-cyclopropyl-5-fluoro-4-methylbenzamide]
4 | 2.51 | Cc1c(F)cc(C(=O)NC2CC2)cc1-c1ccc2c(=O)n(CC(C)(C)CO)cc(S(=O)(=O)N3CCC[C@@H]3CN)c2c1 [Example 55, 3-[4-{[(2R)-2-(aminomethyl)pyrrolidin-1-yl]sulfonyl}-2-(3-hydroxy-2,2-dimethylpropyl)-1-oxo-1,2-dihydroisoquinolin-6-yl]-N-cyclopropyl-5-fluoro-4-methylbenzamide]
5 | < 0.0631 | Cc1c(F)cc(C(=O)NC2CC2)cc1-c1ccc2c(=O)n(CC(C)(C)CO)cc(S[C@@H]3CCNC3)c2c1 [Example 65, N-Cyclopropyl-3-fluoro-5-{2-(3-hydroxy-2,2-dimethylpropyl)-1-oxo-4-[(3R)-pyrrolidin-3-ylsulfanyl]-1,2-dihydroisoquinolin-6-yl}-4-methylbenzamide]
6 | 0.2 | Cc1c(F)cc(C(=O)NC2CC2)cc1-c1ccc2c(=O)n(CC(C)(CO)CO)cc(SC3CCNCC3)c2c1 [Example 66, N-Cyclopropyl-3-fluoro-5-{2-[3-hydroxy-2-(hydroxymethyl)-2-methylpropyl]-1-oxo-4-(piperidin-4-ylsulfanyl)-1,2-dihydroisoquinolin-6-yl}-4-methylbenzamide]

The next lines start with the compound.

Row | Compound | IC50 [nM]
7 | Cc1c(F)cc(C(=O)NC2CC2)cc1-c1ccc2c(=O)n(CC3CC3)cc(S(=O)(=O)N3CCC(N)CC3)c2c1 [Example 50, 3-{4-[(4-Aminopiperidin-1-yl)sulfonyl]-2-(cyclopropylmethyl)-1-oxo-1,2-dihydroisoquinolin-6-yl}-N-cyclopropyl-5-fluoro-4-methylbenzamide] | 0.2
8 | Cc1c(F)cc(C(=O)NC2CC2)cc1-c1ccc2c(=O)n(CC3CC3)cc(S(=O)(=O)N3CCCNCC3)c2c1 [Example 51, N-cyclopropyl-3-[2-(cyclopropylmethyl)-4-(1,4-diazepan-1-ylsulfonyl)-1-oxo-1,2-dihydroisoquinolin-6-yl]-5-fluoro-4-methylbenzamide] | 0.1
9 | CNC1CCN(S(=O)(=O)c2cn(CC3CC3)c(=O)c3ccc(-c4cc(C(=O)NC5CC5)cc(F)c4C)cc23)CC1 [Example 52, N-cyclopropyl-3-[2-(cyclopropylmethyl)-4-{[4-(methylamino)piperidin-1-yl]sulfonyl}-1-oxo-1,2-dihydroisoquinolin-6-yl]-5-fluoro-4-methylbenzamide] | 0.2
10 | Cc1c(F)cc(C(=O)NC2CC2)cc1-c1ccc2c(=O)n(CC(C)(C)CO)cc(S(=O)(=O)N3CC[C@@H](N)C3)c2c1 [Example 54, 3-[4-{[(3R)-3-Aminopyrrolidin-1-yl]sulfonyl}-2-(3-hydroxy-2,2-dimethylpropyl)-1-oxo-1,2-dihydroisoquinolin-6-yl]-N-cyclopropyl-5-fluoro-4-methylbenzamide] | 0.251
11 | Cc1c(F)cc(C(=O)NC2CC2)cc1-c1ccc2c(=O)n(CC(C)(C)CO)cc(S(=O)(=O)NCCN(C)C)c2c1 [Example 56, N-cyclopropyl-3-[4-{[2-(dimethylamino)ethyl]sulfamoyl}-2-(3-hydroxy-2,2-dimethylpropyl)-1-oxo-1,2-dihydroisoquinolin-6-yl]-5-fluoro-4-methylbenzamide] | 0.794
12 | Cc1c(F)cc(C(=O)NC2CC2)cc1-c1ccc2c(=O)n(CC3(CO)CC3)cc(S(=O)(=O)N3CCCNCC3)c2c1 [Example 57] | 0.158
13 | Cc1c(F)cc(C(=O)NC2CC2)cc1-c1ccc2c(=O)n(CC(C)(C)CO)cc(SC3CCNCC3)c2c1 [Example 58, N-Cyclopropyl-3-fluoro-5-[2-(3-hydroxy-2,2-dimethylpropyl)-1-oxo-4-(piperidin-4-ylsulfanyl)-1,2-dihydroisoquinolin-6-yl]-4-methylbenzamide] | 0.316
14 | Cc1c(F)cc(C(=O)NC2CC2)cc1-c1ccc2c(=O)n(CC(C)(C)CO)cc([S+]([O-])C3CCNCC3)c2c1 (centres unmarked) [Example 59, N-Cyclopropyl-3-fluoro-5-[2-(3-hydroxy-2,2-dimethylpropyl)-1-oxo-4-(piperidin-4-ylsulfinyl)-1,2-dihydroisoquinolin-6-yl]-4-methylbenzamide] | 0.501
15 | Cc1c(F)cc(C(=O)NC2CC2)cc1-c1ccc2c(=O)n(CC(C)(C)CO)cc(S(=O)(=O)C3CCNCC3)c2c1 [Example 60, N-Cyclopropyl-3-fluoro-5-[2-(3-hydroxy-2,2-dimethylpropyl)-1-oxo-4-(piperidin-4-ylsulfonyl)-1,2-dihydroisoquinolin-6-yl]-4-methylbenzamide] | 0.398
16 | Cc1c(F)cc(C(=O)NC2CC2)cc1-c1ccc2c(=O)n(CC3CC3)cc(SC3CCNCC3)c2c1 [Example 61, N-Cyclopropyl-3-[2-(cyclopropylmethyl)-1-oxo-4-(piperidin-4-ylsulfanyl)-1,2-dihydroisoquinolin-6-yl]-5-fluoro-4-methylbenzamide] | 0.1
17 | Cc1c(F)cc(C(=O)NC2CC2)cc1-c1ccc2c(=O)n(CC3CC3)cc(S(=O)(=O)C3CCNCC3)c2c1 [Example 62, N-Cyclopropyl-3-[2-(cyclopropylmethyl)-1-oxo-4-(piperidin-4-ylsulfonyl)-1,2-dihydroisoquinolin-6-yl]-5-fluoro-4-methylbenzamide] | 0.2
18 | Cc1c(F)cc(C(=O)NC2CC2)cc1-c1ccc2c(=O)n(CC3(CO)CC3)cc(SC[C@@H]3CCCNC3)c2c1 [Example 63] | 0.398
19 | Cc1c(F)cc(C(=O)NC2CC2)cc1-c1ccc2c(=O)n(CC3(CO)CC3)cc(SC3CCNCC3)c2c1 [Example 64, N-Cyclopropyl-3-fluoro-5-[2-{[1-(hydroxymethyl)cyclopropyl]methyl}-1-oxo-4-(piperidin-4-ylsulfanyl)-1,2-dihydroisoquinolin-6-yl]-4-methylbenzamide] | 0.1
20 | Cc1c(F)cc(C(=O)NC2CC2)cc1-c1ccc2c(=O)n(CC(C)(C)CO)cc(S[C@H]3CCN[C@H](CO)C3)c2c1 [Example 67, N-Cyclopropyl-3-fluoro-5-[2-(3-hydroxy-2,2-dimethylpropyl)-4-{[(2S,4S)-2-(hydroxymethyl)piperidin-4-yl]sulfanyl}-1-oxo-1,2-dihydroisoquinolin-6-yl]-4-methylbenzamide] | 0.251

Source: patent US8012980B2, “Isoquinolinone derivatives” (AstraZeneca AB, priority 2008, dated 2011)
